Reference: ChEMBL document CHEMBL1201862, “PubChem BioAssay data set” (2004)
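A five-concentration, 48-hour dose response in 96-well plates underlies each endpoint, interpolated linearly between surrounding concentrations. GI50 is the concentration that inhibits growth by half.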 Active and inactive are the calls of the source. Rule as the data show it: active = GI50 up to about 1.1 µM and inactive = higher.

Tests used:
Assay in all cases: NCI tumour cell line growth inhibition, 48 h
MDA-MB-435 = system: MDA-MB-435
EKVX = system: EKVX
K562 = system: K562
HCT-15 = system: HCT-15
LOX IMVI = system: LOX IMVI
NCI-H226 = system: NCI-H226
SF-295 = system: SF-295
COLO 205 = system: COLO 205
CAKI-1 = system: CAKI-1
TK-10 = system: TK-10
UO-31 = system: UO-31
IGROV-1 = system: IGROV-1
SNB-75 = system: SNB-75
BT-549 = system: BT-549
T47D = system: T47D
SR = system: SR
NCI/ADR-RES = system: NCI/ADR-RES
M14 = system: M14
HCC 2998 = system: HCC 2998
M19-MEL = system: M19-MEL

SMILES | GI50 (MDA-MB-435) | GI50 (EKVX) | GI50 (K562) | GI50 (HCT-15) [µM] | GI50 (LOX IMVI) | GI50 (NCI-H226) | GI50 (SF-295) | GI50 (COLO 205) | GI50 (CAKI-1) | GI50 (TK-10) | GI50 (UO-31) | GI50 (IGROV-1) | GI50 (SNB-75) | GI50 (BT-549) | GI50 (T47D) | GI50 (SR) | GI50 (NCI/ADR-RES) | GI50 (M14) | GI50 (HCC 2998) | GI50 (M19-MEL)
COc1cc2c(c(O)c1OC)C(=O)[C@@H]1CCC(=O)N1C2c1ccccc1 (stereo partly drawn) | 90.6 µM (inactive) | 51.9 µM (inactive) | 38.6 µM (inactive) | > 100 | 97.1 µM (inactive) | > 100 µM (inactive) | > 100 µM (inactive) | > 100 µM (inactive) | > 100 µM (inactive) | > 100 µM (inactive) | 39.6 µM (inactive) | > 100 µM (inactive) | 35.6 µM (inactive) | > 100 µM (inactive) | > 100 µM (inactive) | 46.6 µM (inactive) | > 100 µM (inactive) | > 100 µM (inactive) | > 100 µM (inactive) | 
COC(=O)C1C(=O)N(CCc2c[nH]c3ccccc23)C[C@@H]2CCC(=O)C[C@H]12 (stereo partly drawn) |  | > 100 µM (inactive) | > 100 µM (inactive) | > 100 | > 100 µM (inactive) |  | > 100 µM (inactive) | > 100 µM (inactive) | > 100 µM (inactive) | > 100 µM (inactive) | > 100 µM (inactive) | > 100 µM (inactive) | > 100 µM (inactive) |  |  |  |  | > 100 µM (inactive) | > 100 µM (inactive) | > 100 µM (inactive)
CC1CCc2sc3nc(S)n(-c4ccccc4)c(=O)c3c2C1 (stereo not drawn) | > 100 µM (inactive) | > 100 µM (inactive) | > 100 µM (inactive) | > 100 | 47.2 µM (inactive) | 48.9 µM (inactive) | 27.7 µM (inactive) | > 100 µM (inactive) | > 100 µM (inactive) | 57.8 µM (inactive) | 15.1 µM (inactive) | 47.4 µM (inactive) | 29.3 µM (inactive) | > 100 µM (inactive) | 33.4 µM (inactive) | 33.4 µM (inactive) | > 100 µM (inactive) | > 100 µM (inactive) | 21.6 µM (inactive) | 
COC(=O)/C=C1\C(=O)C=C2[C@@H]3C[C@H]4C[C@H](CC[C@@]4(C)N21)C3(C)NC(C)=O (stereo partly drawn) | 9.02 µM (inactive) | 11.4 µM (inactive) | 7.66 µM (inactive) | 11.5 | 17 µM (inactive) | 25.5 µM (inactive) | 19.5 µM (inactive) | 5.9 µM (inactive) | 5.64 µM (inactive) | 15.7 µM (inactive) | 19.5 µM (inactive) | 20 µM (inactive) | 13.2 µM (inactive) | 11.1 µM (inactive) | 7.23 µM (inactive) | 18.8 µM (inactive) | 26.5 µM (inactive) | 8.91 µM (inactive) | 26.9 µM (inactive) | 
C=C1C(=O)O[C@H]2[C@H]3O[C@@H](C[C@@H]12)[C@@]1(C)CC[C@H](O1)C(C)=CCC[C@H]3C | 1.46 µM (inactive) | 1.52 µM (inactive) | 1.08 µM (active) | 1.49 | 1.52 µM (inactive) | 2.46 µM (inactive) | 5.16 µM (inactive) | 1.81 µM (inactive) | 1.28 µM (inactive) | 1.58 µM (inactive) | 1.46 µM (inactive) | 1.53 µM (inactive) | 1.73 µM (inactive) | 0.581 µM (active) | 2.11 µM (inactive) | 0.065 µM (active) | 1.72 µM (inactive) | 1.65 µM (inactive) | 1.75 µM (inactive) | 
COc1ccccc1C1ON=C(c2ccc([N+](=O)[O-])cc2)N1C12CC3CC(CC(C3)C1)C2 (stereo not drawn) | 96.4 µM (inactive) | > 100 µM (inactive) | 36.7 µM (inactive) | 91.6 | > 100 µM (inactive) | > 100 µM (inactive) | 80.2 µM (inactive) | > 100 µM (inactive) | > 100 µM (inactive) | > 100 µM (inactive) | > 100 µM (inactive) | > 100 µM (inactive) | 42.1 µM (inactive) | > 100 µM (inactive) | 14 µM (inactive) | 29.9 µM (inactive) | > 100 µM (inactive) | 84.3 µM (inactive) | > 100 µM (inactive) | 
CC12CCC(C(Nc3ccccn3)C1=O)C2(C)C (stereo not drawn) | > 100 µM (inactive) | > 100 µM (inactive) | > 100 µM (inactive) | > 100 | > 100 µM (inactive) | > 100 µM (inactive) | > 100 µM (inactive) | > 100 µM (inactive) | > 100 µM (inactive) | > 100 µM (inactive) | > 100 µM (inactive) | > 100 µM (inactive) | 63 µM (inactive) | > 100 µM (inactive) | > 100 µM (inactive) | > 100 µM (inactive) | > 100 µM (inactive) | > 100 µM (inactive) | 29.9 µM (inactive) | 
